Common to all, as to type: biochemical
The target of one assay is T1, Human MMP14 (Homo sapiens, UniProt P50281).
T1 construct: made in house
The assay is described as follows: Isolated enzyme assay, MMP14. The text has this:
(§1) A protocol for testing against other matrix metalloproteinases, including MMP9, using expressed and purified pro MMP is described, for instance, by C. Graham Knight et al., (1992) FEBS Lett. 296(3):263-266.

Another assay addresses T2, Human MMP2 (Homo sapiens, UniProt P08253).
T2 construct: made in house
T2 sequence (P08253 110-660): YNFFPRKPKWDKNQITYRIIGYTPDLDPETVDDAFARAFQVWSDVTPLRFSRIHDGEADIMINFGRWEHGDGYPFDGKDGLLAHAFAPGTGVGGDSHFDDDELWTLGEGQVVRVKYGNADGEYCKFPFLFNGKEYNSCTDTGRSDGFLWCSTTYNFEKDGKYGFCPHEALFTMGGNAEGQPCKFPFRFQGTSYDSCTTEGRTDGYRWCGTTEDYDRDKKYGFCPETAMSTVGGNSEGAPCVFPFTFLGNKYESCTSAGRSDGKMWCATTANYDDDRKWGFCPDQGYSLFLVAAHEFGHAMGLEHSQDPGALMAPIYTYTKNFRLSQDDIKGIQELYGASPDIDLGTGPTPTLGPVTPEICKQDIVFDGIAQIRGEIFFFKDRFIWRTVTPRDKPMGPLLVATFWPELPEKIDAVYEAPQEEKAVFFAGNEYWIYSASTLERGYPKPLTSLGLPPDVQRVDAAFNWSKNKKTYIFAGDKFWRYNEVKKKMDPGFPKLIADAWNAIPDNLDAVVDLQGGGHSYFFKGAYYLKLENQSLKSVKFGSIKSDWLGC
The assay is described as follows: Isolated enzyme assay, MMP2.
From the text: as §1

The target in another assay is T3, Human MMP12 (Homo sapiens, UniProt P39900).
T3 construct: Recombinant human MMP12 catalytic domain may be expressed and purified as described by Parkar A. A. et al; made in house
In words: Isolated enzyme assay, MMP12 catalytic domain, fluorogenic substrate. Particulars: recombinant human MMP12 catalytic domain. As for the experimental part:
Recombinant human MMP12 catalytic domain may be expressed and purified as described by Parkar A. A. et al, (2000), Protein Expression and Purification, 20:152. The purified enzyme can be used to monitor inhibitors of activity as follows: MMP12 (50 ng/ml final concentration) is incubated for 60 minutes at room temperature with the synthetic substrate Mac-Pro-Cha-Gly-Nva-His-Ala-Dpa-NH2 in assay buffer (0.1M “Tris-HCl” (trade mark) buffer, pH 7.3 containing 0.1M NaCl, 20 mM CaCl2, 0.020 mM ZnCl and 0.05% (w/v) “Brij 35” (trade mark) detergent) in the presence (5 concentrations) or absence of inhibitors. Activity is determined by measuring the fluorescence at λex 320 nm and λem 405 nm. Percent inhibition is calculated as follows: % Inhibition is equal to the […].

A further assay has as its target T4, Human MMP9 (Homo sapiens, UniProt P14780).
T4 construct: made in house
The assay is described as follows: Isolated enzyme assay, MMP9.
From the text: as §1

For a further assay, the target named is T5, Human MMP8 (Homo sapiens, UniProt P22894).
T5 construct: made in house
The assay is described as follows: Isolated enzyme assay, MMP8.
From the text: as §1

The next assay deals with T6, Human MMP19 (Homo sapiens, UniProt Q99542).
T6 construct: made in house
T6 sequence (Q99542 98-508): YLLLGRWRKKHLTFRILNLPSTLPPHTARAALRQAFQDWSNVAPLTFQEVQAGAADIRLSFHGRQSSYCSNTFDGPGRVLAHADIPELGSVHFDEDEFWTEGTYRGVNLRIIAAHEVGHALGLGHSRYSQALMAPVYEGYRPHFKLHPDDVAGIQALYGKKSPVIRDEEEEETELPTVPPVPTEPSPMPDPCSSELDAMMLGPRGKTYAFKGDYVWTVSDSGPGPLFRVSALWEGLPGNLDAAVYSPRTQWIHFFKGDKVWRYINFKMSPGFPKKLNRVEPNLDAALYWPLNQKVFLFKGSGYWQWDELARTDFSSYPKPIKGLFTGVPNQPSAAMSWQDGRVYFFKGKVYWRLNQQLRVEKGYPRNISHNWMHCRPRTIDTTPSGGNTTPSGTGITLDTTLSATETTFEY
In words: Isolated enzyme assay, MMP19.
From the text: as §1

T5 sequence (P22894 101-467): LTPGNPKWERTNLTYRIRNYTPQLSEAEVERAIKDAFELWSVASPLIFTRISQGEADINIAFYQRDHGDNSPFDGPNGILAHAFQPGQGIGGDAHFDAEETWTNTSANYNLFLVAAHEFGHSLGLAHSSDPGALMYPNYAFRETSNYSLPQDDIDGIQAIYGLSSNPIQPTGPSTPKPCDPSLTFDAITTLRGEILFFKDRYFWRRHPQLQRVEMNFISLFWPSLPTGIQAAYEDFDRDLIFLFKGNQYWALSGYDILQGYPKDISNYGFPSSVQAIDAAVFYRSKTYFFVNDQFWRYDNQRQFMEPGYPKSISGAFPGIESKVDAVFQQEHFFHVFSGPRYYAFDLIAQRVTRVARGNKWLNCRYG
T4 sequence (P14780 94-707): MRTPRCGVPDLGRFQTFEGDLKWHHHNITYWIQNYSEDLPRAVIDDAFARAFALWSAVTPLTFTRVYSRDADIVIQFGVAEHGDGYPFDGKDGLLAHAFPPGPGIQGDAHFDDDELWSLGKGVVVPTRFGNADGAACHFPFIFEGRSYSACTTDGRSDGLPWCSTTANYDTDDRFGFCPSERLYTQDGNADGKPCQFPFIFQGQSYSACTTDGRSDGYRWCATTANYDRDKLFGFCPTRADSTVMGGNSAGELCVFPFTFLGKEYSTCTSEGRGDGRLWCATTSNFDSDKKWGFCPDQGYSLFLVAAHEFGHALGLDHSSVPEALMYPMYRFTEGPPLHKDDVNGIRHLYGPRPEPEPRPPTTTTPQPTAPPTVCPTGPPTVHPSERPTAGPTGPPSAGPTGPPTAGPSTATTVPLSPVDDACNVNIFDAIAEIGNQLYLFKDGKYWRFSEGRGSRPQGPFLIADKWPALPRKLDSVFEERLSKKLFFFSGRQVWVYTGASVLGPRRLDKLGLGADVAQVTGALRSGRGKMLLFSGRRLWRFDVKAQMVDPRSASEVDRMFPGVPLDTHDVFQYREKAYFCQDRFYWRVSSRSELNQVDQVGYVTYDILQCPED
T3 sequence (P39900 106-263 limits assumed): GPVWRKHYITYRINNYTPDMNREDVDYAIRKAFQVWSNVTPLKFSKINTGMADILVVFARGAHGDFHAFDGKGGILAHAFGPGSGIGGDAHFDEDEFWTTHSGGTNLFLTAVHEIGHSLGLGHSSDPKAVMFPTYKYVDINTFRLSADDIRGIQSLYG

As to `O=c1[nH]nc(CCS(=O)(=O)N2CCC(Oc3ccc(Cl)cn3)CC2)[nH]1` [Example 2, 5-[2-({4-[(5-Chloropyridin-2-yl)oxy]piperidin-1-yl}sulfonyl)ethyl]-2,4-dihydro-3H-1,2,4-triazol-3-one], the 50% inhibitory concentration (IC50) against Human MMP14 was determined as 6660 nM; on Human MMP2, 1010 nM; at Human MMP12 it was 65 nM; against Human MMP9, 318 nM; on Human MMP8, 243 nM.

Take `O=c1[nH]nc(CS(=O)(=O)N2CCN(c3ccc(Cl)cc3)CC2)[nH]1` [Example 4, 5-({[4-(4-Chlorophenyl)piperazin-1-yl]sulfonyl}methyl)-2,4-dihydro-3H-1,2,4-triazol-3-one]: the IC50 on Human MMP14 came to 1750 nM; on Human MMP2, 142 nM; on Human MMP12, 18 nM; at Human MMP9 it was 414 nM; at Human MMP19, 64 nM; against Human MMP8 it was 31 nM.

Turning to `O=c1[nH]nc(CS(=O)(=O)N2CC=C(C#Cc3cnc(C(F)(F)F)nc3)CC2)[nH]1` [Example 6, 5-({[4-{[2-(Trifluoromethyl)pyrimidin-5-yl]ethynyl}-3,6-dihydropyridin-1(2H)-yl]sulfonyl}methyl)-2,4-dihydro-3H-1,2,4-triazol-3-one], the concentration for half-maximal inhibition (IC50) at Human MMP14 was determined as 6850 nM; on Human MMP2 it was 263 nM; at Human MMP12 it was 2.4 nM; against Human MMP9 it was 5.7 nM; at Human MMP19 it was 4300 nM; against Human MMP8 it was 284 nM.

The record behind these values is patent publication US20090299066A1, “TRIAZOLONE DERIVATIVES AS MMP INHIBITORS FOR THE TREATMENT OF ASTHMA AND COPD” (priority 2004, published 2009).
